# Measurements reported in patent US20260265194A1, “COMPOUNDS FOR THE TREATMENT OF HIV” (THE TRUSTEES OF THE UNIVERSITY OF PENNSYLVANIA, priority 2022, published 2026).
# Experiments:
# [1] = tested on: HIV-1 AD8; assay: Single-round pseudovirus infection inhibition (luciferase), AD8 Env; assay type: cell-based; conditions: Cf2Th target cells expressing CD4 and CCR5
# Method: (§1) Cell lines. 293T cells were grown in Dulbecco's modified Eagle's medium (DMEM) (Life Technologies, Wisent Inc.) supplemented with 10% fetal bovine serum (FBS) (Life Technologies, VWR) and 100 µg/ml of penicillin-streptomycin (Life Technologies, Wisent Inc.). Cf2Th cells stably expressing the human CD4 and CCR5 coreceptors for HIV-1 were grown in the same medium supplemented with 0.4 mg/ml of G418 and 0.2 mg/ml of hygromycin.
# (§2) CD4-mimetic compound. The compounds of the disclosure (CD4mc) were dissolved in dimethyl sulfoxide (DMSO) at a stock concentration of 10 mM and diluted to the appropriate concentration for antiviral assays.
# (§3) Production of recombinant pseudoviruses expressing luciferase. 293T cells were transfected with pSVIIIenv plasmids expressing Env from HIV-1 strain variants, the pCMVΔP1Δenv HIV-1 Gag-Pol packaging construct and the firefly luciferase-expressing HIV-1 vector at a 1:1:3 μg DNA ratio using effectene transfection reagent (Qiagen). […]
# (§4) Virus infectivity and inhibition. […] Forty-eight h later, the target cells were lysed and the luciferase activity was measured.
# (§5) For inhibition assays, the compounds to be tested were incubated at various concentrations with recombinant pseudoviruses for 1 h at 37° C. […] Forty-eight hours later, the target cells were lysed and the luciferase activity was measured. […]
# [2] = tested on: HIV-1 JR-FL; assay: Single-round pseudovirus infection inhibition (luciferase), JR-FL Env; assay type: cell-based; conditions: Cf2Th target cells expressing CD4 and CCR5
# Method: as §1, §2, §3, §4, §5
# [3] = tested on: BG505, cladeA HIV-1; assay: Single-round pseudovirus infection inhibition (luciferase), BG505 Env; assay type: cell-based; conditions: Cf2Th target cells expressing CD4 and CCR5
# Method: as §1, §2, §3, §4, §5
# [4] = tested on: mutant HIV-1AD8 batches 130_3 and 130_C; assay: Entry inhibition of CD4mc resistant AD8 variants; assay type: cell-based; conditions: up to 300 μM
# Method: CD4mc resistant variants of Clade B virus AD8 were also selected by incubating infected host cells with increasing concentrations of BNM-III-170. […] These resistant strains of AD8 were sequenced to find specific mutations in the gp120 monomer that conferred the greatest resistance to BNM-III-170. Of these mutations examined, E64G, S375N, and I424T conferred the greatest resistance to treatment with compounds of the disclosure.
# Each of the mutations individually were able to increase resistance to BNM-III-170, but were most resistant when combined as in HIV-1AD8 isolates 130_3 and 130_C. […] This was true with the individual mutations discussed above, as well as the original resistant mutants 130_3 and 130_C.
# [5] = tested on: Env on JR-FL infected primary T-cells; assay: HIV+ plasma binding (Ab recognition of Env on infected cells); assay type: cell-based, HIV-1
# Source text: (§6) The ability of the compounds of the disclosure to enhance Ab recognition of Env on the surface of infected cells and mediate ADCC was examined. Via HIV+ plasma binding, it was observed that CJF-III-192 was able to enhance Ab recognition to a greater degree than BNM-III-170 (7-fold vs 2-fold enhancement vs DMSO) for JR-FL infected primary T-cells. Additionally, when comparing the % ADCC activity of these two compounds, it was observed that CJF-III-192 could achieve up to 8% killing of HIVJR-FL-infected cells, while BNM-III-170 could only attain levels up to 5%. This effect on ADCC activity was more pronounced with HIVCH58TF-infected cells; 18% killing for CJF-III-192 vs. 8% killing with […].
# [6] = tested on: HIVJR-FL-infected cells; assay: ADCC killing of HIVJR-FL-infected cells; assay type: cell-based, HIV-1
# Source text: as §6
# [7] = tested on: HIVCH58TF-infected cells; assay: ADCC killing of HIVCH58TF-infected cells; assay type: cell-based, HIV-1
# Source text: as §6
smiles,measurement,setting,value
CNCc1ccc2c(c1)C[C@H](CN=C(N)N)[C@H]2NC(=O)C(=O)Nc1ccc(Cl)c(F)c1.O=C(O)C(F)(F)F.O=C(O)C(F)(F)F [BNM-III-170],IC50,[1],1.7 µM
same,IC50,[2],12.2 µM
same,IC50,[3],> 300 µM
same,entry inhibition of resistant mutants,[4],completely resistant
same,enhancement of Ab recognition vs DMSO,[5],2 fold
same,% ADCC activity (killing),[6],up to 5%
same,% ADCC activity (killing),[7],8%
